In one test the test system is MCF-7 (breast carcinoma). Kind of test: IC50 in human cancer cell lines (inhibiting HDAC): MCF-7. As to conditions: MCF7, read-out: IC50 ± SD against human cancer cell lines.
Test [1] relates to KB cell line (oral carcinoma). Kind of test: IC50 in human cancer cell lines (inhibiting HDAC): KB. As to conditions: Homo sapiens, read-out: IC50 ± SD against human cancer cell lines, KB, oral carcinoma.
In test [2] the test system is histone and a-tubulin acetylation in human DU145 cells. Kind of test: Western blot: acetylation in DU145 cells. The test is classed as cell-based. On the procedure:
More specifically, cells in the logarithmic phase were initially seeded at a density of 1×10^6 in 100 mm^2 dishes. […] IC50 indicia of compound in vitro potency) for the indicated times (i.e., 24 and 48 hours), adherent cells were collected for protein extract preparation. Briefly, cells were lysed with the cell lysis reagent CelLytic™ M (Sigma-Aldrich) containing 1 mM DTT, 1 mM PMSF and protease inhibitors for whole-cell lysate preparation. Equal amounts of lysate (on a protein basis) were then differentiated using the SDS-PAGE, blotted on PVDF membranes, conjugated with various specific primary antibodies, and then probed with appropriate secondary antibodies. The immunoreactive bands were detected using the ECL method and visualized on Kodak Bio-MAX MR film. Proteins from cells were extracted and subjected to the western blotting analysis. β-Actin was used as an internal control. The deacetylase enzyme assay was based on a homogeneous fluorescence release assay. […] After fluorophore from the deacetylated substrates, fluorescent signal was detected.
(In western blotting, separated proteins are transferred to a membrane and probed.)

Test [3] relates to LNCaP-R2 (prostate carcinoma). Kind of test: IC50 against human cancer cell lines: LNCaP-R2. As to conditions: read-out: IC50 ± SD against human cancer cell lines.
Test [4] has as its system histone and α-tubulin acetylation in PC3 cells. Kind of test: Western blot: acetylation in PC3 cells. The test is classed as cell-based, human. The note with it: concentration-dependent. As to the method:
More specifically, cells in the logarithmic phase were initially seeded at a density of 1×10^6 in 100 mm^2 dishes. […] Briefly, cells were lysed with the cell lysis reagent CelLytic™ M (Sigma-Aldrich) containing 1 mM DTT, 1 mM PMSF and protease inhibitors for whole-cell lysate preparation. Equal amounts of lysate (on a protein basis) were then differentiated using the SDS-PAGE, blotted on PVDF membranes, conjugated with various specific primary antibodies, and then probed with appropriate secondary antibodies. The immunoreactive bands were detected using the ECL method and visualized on Kodak Bio-MAX MR film.
Proteins from cells were extracted and subjected to the western blotting analysis. β-Actin was used as an internal control. The deacetylase enzyme assay was based on a homogeneous fluorescence release assay. […] After fluorophore from the deacetylated substrates, fluorescent signal was detected.

In another test the test system is KB-L30 (KB-resistant). Kind of test: IC50 against human cancer cell lines: KB-L30. The note with it: read-out: IC50 ± SD against human cancer cell lines.
Test [5] deals with MDA-MB-231 (breast carcinoma). Kind of test: IC50 against human cancer cell lines: MDA-MB-231. The note with it: MDA-MB-231, read-out: IC50 ± SD against human cancer cell lines.
Experimental: (§1) More specifically, the IC50 values of test compounds were determined by carrying out a fluorimetric histone deacetylase assay following the manufacturer's instructions. For a pan-HDAC assay, HeLa nuclear extracts were used as a source of histone deacetylase (BioVision Inc.). Histone deacetylase isomer inhibition assays were conducted using purified recombinant histone deacetylase proteins of the various isomers (BPS Bioscience Inc.). Reactions were performed in 0.1 mol/L KCl, 20 mmol/L HEPES/NaOH at pH 7.9, 20% glycerol, 0.2 mmol/L DTA, 0.5 mmol/L DTT, and 0.5 mmol/L phenylmethylsulfonylfluoride. […] Reactions were carried out in triplicate for each test compound. Each point represented the mean±SD of replicates.
The test system of test [6] is androgen-independent PC3 prostate cancer cells. Kind of test: Cell cycle analysis. The note with it: androgen-independent PC3 prostate cancer cells. The format is cell-based, human. As to the method: More specifically, cells in the logarithmic phase were initially seeded at a density of 1×10^6 in 100 mm^2 dishes. After treatment with various concentrations of test compounds for the indicated times, cells were trypsinized, washed with PBS, and fixed in 70% ethanol. The fixed cells were then treated with 50 μg/mL RNase and stained with 50 μg/mL propidium iodide at room temperature for 20 minutes. The DNA content was determined by BD FACS Calibur flow cytometry system (BD Biosciences). For each analysis, 10,000 cells were counted, and the percentage of cells in each phase was calculated using ModFit LT software (Verity Software House, Inc.).

The subject of the next test is KB-7D (KB resistant). Kind of test: IC50 against human cancer cell lines: KB-7D. As to conditions: KB7D, read-out: IC50 ± SD against human cancer cell lines.
Test [7] concerns LNCaP-R1 (prostate carcinoma). Kind of test: IC50 against human cancer cell lines: LNCaP-R1. The note with it: read-out: IC50 ± SD against human cancer cell lines.
Experimental: as §1
Test [8] relates to HT-29 (colorectal carcinoma). Kind of test: IC50 in human cancer cell lines (inhibiting HDAC): HT-29. The note with it: HT-29, read-out: IC50 ± SD against human cancer cell lines.
Test [9] relates to H460 (non-small-cell lung carcinoma). Kind of test: IC50 in human cancer cell lines (inhibiting HDAC): H460. As to conditions: NCI-H460, read-out: IC50 ± SD against human cancer cell lines.
The test system of a further test is PC3 (prostate carcinoma). Kind of test: IC50 in human cancer cell lines (inhibiting HDAC): PC3. As to conditions: read-out: IC50 ± SD against human cancer cell lines.
The subject of test [10] is DU-145 (prostate carcinoma). Kind of test: IC50 against human cancer cell lines: DU-145. As to conditions: DU-145, read-out: IC50 ± SD against human cancer cell lines.
Experimental: as §1
The test system of a further test is WI-38 (normal: lung). Kind of test: IC50 against cell lines: WI-38. The note with it: Homo sapiens, WI-38, read-out: IC50 ± SD against human cancer cell lines.
Test [11] relates to Detroit551 (normal: fibroblast). Kind of test: IC50 against cell lines: Detroit551. The note with it: Homo sapiens, Detroit 551, read-out: IC50 ± SD against human cancer cell lines.
The test system of a further test is KB-VIN10 (KB resistant). Kind of test: IC50 against human cancer cell lines: KB-VIN10. The note with it: Homo sapiens, KB-VIN10, read-out: IC50 ± SD against human cancer cell lines.

The results in this text go back to patent US10246455B2, “Histone deacetylase inhibitors” (Taipei Medical University, priority 2014, dated 2019).

The term IC50 denotes the concentration needed to halve the response being measured.

Experimental for KB-7D (KB resistant): as §1
Experimental for KB-L30 (KB-resistant): as §1

`O=C(/C=C/c1cnc2c(ccn2S(=O)(=O)c2ccccc2)c1)NO` [Compound 14a, (E)-N-hydroxy-3-(1-(phenylsulfonyl)-1H-pyrrolo[2,3-b]pyridin-5-yl)acrylamide]: the IC50 was found to be 170 ± 55 nM in the test on MCF-7 (breast carcinoma); 252 ± 58.5 nM in [1]; 141 ± 50 nM in test [3]; 445 ± 249 nM in the test with KB-L30 (KB-resistant); 184 ± 50 nM in test [5]; 276 ± 78.4 nM in the test on KB-7D (KB resistant). The IC50 in test [7] was 156 ± 40 nM; in [8], 182 ± 26.7 nM; in test [9] it was 243 ± 70.4 nM; in the test with PC3 (prostate carcinoma), 380 ± 220 nM; in [10], 420 ± 170 nM; with WI-38 (normal: lung) it was over 1000 nM. Besides, the values for the IC50 (in [11]; with KB-VIN10 (KB resistant)) were over 1000 nM and 213 nM, respectively. In test [2], the “histone and a-tubulin acetylation” value was “induced histone and a-tubulin acetylation”. Moreover, the “histone and α-tubulin acetylation” value in test [4] is “induced histone and α-tubulin acetylation”. Moreover, the “cell cycle arrest and apoptosis” value in [6] was “induced cell cycle arrest and apoptosis”.
